Test results published in patent US10301288B2, “Kinase inhibitors” (Topivert Pharma Limited, priority 2013, dated 2019).

Target: CYP3A4 (Homo sapiens (Human), UniProt P08684)
Experiment: CYP450 time-dependent inhibition, CYP3A4
Type: in vitro ADME
Method: CYP450 time-dependent inhibition (TDI) assays were performed with test compound at six test concentrations, 0.062 μM to 15 μM (n=2). The test compounds was pre-incubated for 30 minutes with pooled human hepatic microsomes in 0.1 M Tris buffer, pH 7.4, at 37° C. in the presence of cofactor NADPH. A parallel series of incubations (n=2) were prepared with no pre-incubation. Probe substrates were then added (with additional cofactor) and further incubated for the times specified. Concentrations of probe substrates used in the incubations have been optimised to maintain first order reaction conditions.
Reactions were terminated with acetonitrile containing analytical internal standard (carbamazepine), samples then centrifuged to remove microsomal protein and analysed using optimised LC/MS-MS conditions. The MS data were normalised to internal standard and compared to the appropriate solvent controls to determine the amount of metabolite formed from the probe substrate relative to the “uninhibited” controls. The results are quoted as % inhibition.
Variation in probe turnover between plate wells means that inhibition values recorded below 10-15% may not be significant.

CYP3A4, sequence (P08684 whole entry): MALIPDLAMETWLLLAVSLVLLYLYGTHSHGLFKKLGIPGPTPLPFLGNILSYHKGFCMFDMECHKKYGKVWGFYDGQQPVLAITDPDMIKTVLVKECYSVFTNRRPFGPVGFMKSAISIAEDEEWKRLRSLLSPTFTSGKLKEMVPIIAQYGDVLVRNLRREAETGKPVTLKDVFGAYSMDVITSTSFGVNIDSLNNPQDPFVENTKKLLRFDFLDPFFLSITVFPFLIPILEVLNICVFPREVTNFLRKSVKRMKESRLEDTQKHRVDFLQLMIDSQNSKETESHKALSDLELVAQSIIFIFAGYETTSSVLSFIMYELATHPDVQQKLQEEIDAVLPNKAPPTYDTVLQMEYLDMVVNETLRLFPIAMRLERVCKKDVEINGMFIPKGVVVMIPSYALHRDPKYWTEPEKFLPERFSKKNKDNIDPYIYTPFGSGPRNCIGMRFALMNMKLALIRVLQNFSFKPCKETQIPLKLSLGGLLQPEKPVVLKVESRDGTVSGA

C#Cc1cc(Nc2nccc(Oc3ccc(NC(=O)Nc4cc(C(C)(C)C)nn4-c4ccc(C)cc4)c4ccccc34)n2)cc(C(=O)NCCOCCOCCOC)c1 [Example 2, 3-((4-((4-(3-(3-(tert-Butyl)-1-(p-tolyl)-1H-pyrazol-5-yl)ureido)naphthalen-1-yl)oxy)pyrimidin-2-yl)amino)-5-ethynyl-N-(2-(2-(2-methoxyethoxy)ethoxy)ethyl)-benzamide]
IC50 (CYP3A4, 0 min preincubation): > 15 µM
IC50 (CYP3A4, 30 min preincubation): 7.7 µM
inhibition at 0 min, 15 µM (human, pooled human liver microsomes, pH 7.4, CYP3A4, 0 min preincubation, 15 μM, read-out: 15 μM % Inh): 2%
inhibition at 30 min, 15 µM (human, pooled human liver microsomes, pH 7.4, CYP3A4, 30 min preincubation, 15 μM, read-out: 15 μM % Inh): 52%
